Patent publication US10881667B2, “Method and composition for treating epilepsy” (City University of Hong Kong, priority 2018, dated 2021)
Entries after “also recorded” stand apart in the source; their conditions may differ.

System: epilepsy model mice (intrahippocampal kainic acid)
Test: spontaneous recurrent seizures in kainic acid-induced epilepsy model mice, Racine scale accumulative scores
Type: in vivo, C57 mice
Conditions: YM022 100 nM, YF476 1 μM; for accumulative scores of spontaneous seizures / spontaneous seizures onset after drug intervention: adult male C57 mice, kainic acid model, i.p. injection, 10 μL (5 mice), 10 μL (9 mice), vs day before intervention; for seizure onsets after multiple injections: kainic acid model mice, multiple i.p. injections, 10 μL
Procedure: FIG. 1 is a series of line plots depicting the statistics of the accumulative scores of spontaneous seizures of epilepsy model mice before and after single or multiple drug interventions ([…], 1 μM, 10 μL). The 9 lines represent 9 epilepsy model mice of the experiment, and the black arrows indicate the time of drug interventions. Accumulative scores were recorded base on the quantity and severity of spontaneous seizures: 3=Racine scale stage-5 seizure; 2=Racine scale stage-4 seizure; 1=Racine scale stage-3 seizure; accumulative score is equal to sum of scores of seizures on daily basis.
FIG. 2 is a series of line plots depicting the statistics of the accumulative scores of spontaneous seizures of epilepsy model mice before and after single or multiple drug interventions (YM022, 100 nM, 10 μL). The 5 lines represent 5 epilepsy model mice of the experiment, and the black arrows indicate the time of drug interventions.
Adult male C57 mice were housed under standard conditions, with food and water available. For injection of kainic acid, mice were anesthetized with sodium pentobarbital (50 mg/kg, i.p.; Ceva Sante Animale Co., France), and atropine sulphate (0.05 mg/kg, s.c.) was administered to inhibit tracheal secretions. Kainic acid (0.3 mg/mL, 650 nL, Tocris), was stereotaxically injected into the right CA3 area of the hippocampus. Kainic acid was slowly injected over 60 s with a 2 μL microsyringe at the following stereotaxic coordinates: AP, −2.06; ML, −1.80; DV, −1.60, respectively. After injection, the needle of the syringe was maintained in situ for additional 5 min to limit reflux along the injection track. Directly after surgery, the mice were housed in clear plexiglass cages (one per cage). A special camera was placed diagonally above each cage for monitoring in both the light and dark phase. Exactly 2 weeks after kainic acid treatment, all videos were collected regularly, and three trained technicians blind to drug intervention viewed the videos. The seizure activities during 12-h epoch (00:00 a.m. to 12:00 p.m.) were rated with Racine scale (Electroencephalogr Clin Neurophysiol, 1972, 32(3): 281-294). Accumulative scores were recorded base on the quantity and severity of spontaneous seizures: 3=Racine scale stage-5 seizure; 2=Racine scale stage-4 seizure; 1=Racine scale stage-3 seizure; accumulative score is equal to sum of scores of seizures on daily basis.
The model of epilepsy induced in mice by kainic acid reproduces most of the clinical and neurophysiological features of human temporal lobe epilepsy. Unilateral intrahippocampal injection of kainic acid induced a limbic status epilepticus which may last for up to 5 hours. […]

SMILES	accumulative scores of spontaneous seizures / spontaneous seizures onset after drug intervention	seizure onsets after multiple injections
CNc1cccc(NC(=O)N[C@@H]2N=C(c3ccccn3)c3ccccc3N(CC(=O)C(C)(C)C)C2=O)c1 [YF476]	significantly reduce; also recorded: significant reduction	very rare
Cc1cccc(NC(=O)N[C@@H]2N=C(c3ccccc3)c3ccccc3N(CC(=O)c3ccccc3C)C2=O)c1 [YM022]	significantly reduce; also recorded: significant reduction	very rare
